From patent publication US20250108023A1, “Products for Masking Bitterness” (The Third People's Hospital of Henan Province, priority 2023, published 2025) come the findings set out here.

Each structure is given as a SMILES string.

For the assay, the target named is T1, sodium ion channel of Trpm5 bitter receptor (Mus musculus, UniProt Q9JJH7).
T1 construct: Put the removed tongue in a 2 ml EP tube, add 1-1.5 ml of 0.25% trypsin solution; from tissue; host or cells: cells dissociated with trypsin from mouse tongue
T1 sequence (Q9JJH7 1-1158): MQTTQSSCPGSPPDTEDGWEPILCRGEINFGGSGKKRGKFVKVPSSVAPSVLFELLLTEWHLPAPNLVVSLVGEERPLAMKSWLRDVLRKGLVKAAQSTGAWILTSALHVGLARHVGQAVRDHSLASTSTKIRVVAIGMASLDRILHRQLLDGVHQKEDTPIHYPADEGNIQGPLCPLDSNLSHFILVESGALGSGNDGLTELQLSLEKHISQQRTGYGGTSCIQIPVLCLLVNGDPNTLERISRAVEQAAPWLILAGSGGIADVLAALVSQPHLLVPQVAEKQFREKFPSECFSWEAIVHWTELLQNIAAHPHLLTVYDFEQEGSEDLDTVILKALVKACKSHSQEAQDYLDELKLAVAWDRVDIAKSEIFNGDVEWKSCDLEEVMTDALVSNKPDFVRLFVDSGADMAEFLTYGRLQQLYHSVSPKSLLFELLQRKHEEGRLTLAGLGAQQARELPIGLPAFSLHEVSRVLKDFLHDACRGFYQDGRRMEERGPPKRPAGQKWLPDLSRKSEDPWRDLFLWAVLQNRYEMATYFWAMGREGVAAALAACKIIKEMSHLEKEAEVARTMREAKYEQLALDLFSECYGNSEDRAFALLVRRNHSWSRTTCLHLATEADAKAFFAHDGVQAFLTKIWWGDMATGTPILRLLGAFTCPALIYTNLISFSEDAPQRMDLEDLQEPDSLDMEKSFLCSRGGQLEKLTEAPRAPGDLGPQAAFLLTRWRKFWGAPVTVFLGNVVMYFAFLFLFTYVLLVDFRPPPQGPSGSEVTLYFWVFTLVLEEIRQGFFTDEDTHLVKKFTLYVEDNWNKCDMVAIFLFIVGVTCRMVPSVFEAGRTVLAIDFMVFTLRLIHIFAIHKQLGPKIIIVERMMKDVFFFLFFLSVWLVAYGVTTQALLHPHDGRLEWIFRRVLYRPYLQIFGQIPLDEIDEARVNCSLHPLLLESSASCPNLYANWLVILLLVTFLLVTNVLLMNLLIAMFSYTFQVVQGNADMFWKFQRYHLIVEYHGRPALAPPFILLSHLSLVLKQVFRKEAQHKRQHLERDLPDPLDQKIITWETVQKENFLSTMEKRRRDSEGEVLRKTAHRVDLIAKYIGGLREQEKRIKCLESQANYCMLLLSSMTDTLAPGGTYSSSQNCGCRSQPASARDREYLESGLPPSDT
The assay can be described thus: Immunofluorescence experiment of sodium ion channels in mouse tongue cells stimulated with bitter agent. It is filed as cell-based, mice. The note with it: for blocking effect on the sodium ion channel (result analysis in words): judged from change of sodium ion fluorescence after bitter drug. As to the method:
The mouse was killed by dislocation, and the tongue was removed (minimizing tongue bleeding), disinfected with alcohol for 2 minutes (adding sodium citrate for anticoagulation), and washed with D-Hanks solution or rinsed with 10 ml of saline solution drawn by a syringe.
Take out the centrifuge tube from the constant temperature incubator, shake for 2 minutes, blow the undigested tongue several times with the gun tip, take out the tongue, cover it with the EP tube cap, put it in a centrifuge, centrifuge at 3000 rpm for 3 minutes, discard the supernatant, add cell culture medium (containing 10% inactivated serum), blow and disperse the cells, and place it in a 37° C. constant temperature incubator for 30 min to allow the cells to recover.
(1) Take out the prepared ENG-2 AM storage solution and warm it to room temperature for use, keeping it away from light. The concentration of the pre-prepared stock solution is 2 mM and it is stored at −18° C. for future use.
(2) Dilute the ENG-2 AM+DMSO stock solution to a […] working solution using serum-free culture medium.
(3) Load the probe in a serum-free culture medium containing an appropriate concentration of AM probe.
Take out the cells from the incubator, centrifuge, and discard the culture medium. Wash the cells once with D-Hanks solution, centrifuge, and discard the culture medium. Add 1 ml of culture medium again, then add 300 ul of sodium ion probe dilution solution, blow and disperse the cells, and incubate the cells at room temperature or 37° C. for 1 hour.
At the end of incubation, centrifuge at 100 rpm for 2 minutes, discard the supernatant, add 500 ul of cell culture medium without AM probe, blow and disperse the cells, and incubate for 20-60 min to ensure that the cells completely deesterify the AM group.
(4) Take 10 ul of incubation solution and drop it into the center of the cell counting plate, cover it with a slide, and observe it under a fluorescence microscope.
(5) Use a low-power microscope to find the cells, open the fluorescence path, detect the fluorescence signal with a fluorescence microscope, change to a high-power microscope, find the appropriate observation cells, observe and take pictures to record the initial signal.
(2) Experimental drugs: Add 5 ul of the tested drug to one side of the cover glass on the cell counting plate, use absorbent paper to absorb water on the opposite side, let the solution soak the cells, and then use a fluorescence microscope to observe and take 3-5 photos, one every 1-2 minutes; then add 5 ul of the standard bitter drug to one side of the cover glass on the cell counting plate, use absorbent paper to absorb water on the opposite side, let the solution soak the cells, and then use a fluorescence microscope to observe and take 3-5 photos, one every 1-2 minutes.
(5) Data analysis: Use Image J-Fiji software to analyze the images, compare the average values of the fluorescence pixels, remove the base number and compare them in the table, draw FIGS. 4-6, and use SPSS18.0 to perform chi-square tests to compare the differences between the data groups.

[1] abbreviates: Bitterant 60 s (2% metronidazole solution).
The mark [2] stands for this setting: Bitterant 120 s (2% metronidazole solution).
The mark [3] stands for this setting: Bitterant 180 s (2% metronidazole solution).
Where [4] appears, read: Initial (before addition of drug), sodium ion dye ENG-2 AM.
[5] abbreviates: Bitterant 240 s (2% metronidazole solution).

`CC(C)[C@@H]1CC[C@@H](C)C[C@H]1OC(=O)CCC(=O)O` [Menthyl succinate]: the “blocking effect on the sodium ion channel (result analysis in words)” value (“blocking effect” for short) is “can block the sodium ion channel of Trpm5 bitter receptor”. Under “Addition of drugs”, the “average value of fluorescence brightness” value turned out to be 28.92 and the “average value of fluorescence brightness, base number removed” value (shortened to “average value … base number removed”) stood at 0.041. Under setting [1], the “average value of fluorescence brightness” value is on record as 28.747 and the “average value … base number removed” value was −0.132. Besides, under setting [2], the “average value of fluorescence brightness” value came to 28.8 and the “average value … base number removed” value is −0.079. Under setting [3], the “average value of fluorescence brightness” value stood at 28.851 and the “average value … base number removed” value is −0.028. Moreover, the “average value … base number removed” value (Initial) was found to be 0. For the same compound, the “average value of fluorescence brightness” value under setting [4] came to 28.879.

`C=CCc1ccc(OC(C)=O)c(OC)c1` [Eugenol acetate]: the “blocking effect” value was “can block the sodium ion channel of Trpm5 bitter receptor”. Moreover, for the setting “Addition of drugs”, the “average value of fluorescence brightness” value worked out at 28.103 and the “average value … base number removed” value is on record as −0.125. Further, under setting [1], the “average value of fluorescence brightness” value was determined as 27.797 and the “average value … base number removed” value is on record as −0.431. Moreover, under setting [2], the “average value of fluorescence brightness” value is 26.368 and the “average value … base number removed” value was −1.86. For the same compound, under setting [3], the “average value of fluorescence brightness” value was 26.329 and the “average value … base number removed” value is −1.899. For the same compound, the “average value … base number removed” value (Initial) is on record as 0. The “average value of fluorescence brightness” value under setting [4] is reported as 28.228.

`C=CC(C)(O)CCC=C(C)C` (stereo not drawn) [Linalool, linalool]: the “blocking effect” value is on record as “can block the sodium ion channel of Trpm5 bitter receptor”. Also, under “Addition of drugs”, the “average value of fluorescence brightness” value came to 27.648 and the “average value … base number removed” value is listed as −0.135. Under setting [1], the “average value of fluorescence brightness” value is reported as 27.649. Under setting [2], the “average value of fluorescence brightness” value stood at 27.44 and the “average value … base number removed” value was −0.343. Under setting [3], the “average value of fluorescence brightness” value was 27.426 and the “average value … base number removed” value is reported as −0.357. Under setting [5], the “average value of fluorescence brightness” value amounted to 26.46 and the “average value … base number removed” value is listed as −1.323. Further, the “average value … base number removed” value (Initial) is 0. The “average value of fluorescence brightness” value under setting [4] was 27.783.

For `CC(C)=CCCC(C)=CC=O` [Citral, citral], the “blocking effect” value was “can block the sodium ion channel of Trpm5 bitter receptor”. Where the note is “Addition of drugs”, the “average value of fluorescence brightness” value was determined as 29.943 and the “average value … base number removed” value is on record as −0.335. Besides, under setting [1], the “average value of fluorescence brightness” value is reported as 29.766 and the “average value … base number removed” value is recorded as −0.512. In addition, under setting [2], the “average value of fluorescence brightness” value is recorded as 29.742 and the “average value … base number removed” value was −0.536. In addition, under setting [3], the “average value of fluorescence brightness” value is 29.647 and the “average value … base number removed” value is listed as −0.631. Besides, where the note is “Initial”, the “average value … base number removed” value was determined as 0. In addition, under setting [4], the “average value of fluorescence brightness” value is given as 30.278.

Turning to `O=CC=Cc1ccccc1` [Cinnamaldehyde, 3-phenyl-2-propenal], the “blocking effect” value is on record as “can block the sodium ion channel of Trpm5 bitter receptor”. Besides, under “Addition of drugs”, the “average value of fluorescence brightness” value stood at 31.017 and the “average value … base number removed” value is recorded as −0.328. Besides, under setting [1], the “average value of fluorescence brightness” value came to 30.893 and the “average value … base number removed” value was −0.452. Under setting [2], the “average value of fluorescence brightness” value worked out at 30.691 and the “average value … base number removed” value was −0.654. Under setting [3], the “average value of fluorescence brightness” value is 30.597 and the “average value … base number removed” value is recorded as −0.748. Moreover, the “average value … base number removed” value (Initial) is given as 0. Under setting [4], the “average value of fluorescence brightness” value is 31.345.

As for `COc1ccc(CCN(C)CCCC(C#N)(c2ccc(OC)c(OC)c2)C(C)C)cc1OC` (stereo not drawn) [Verapamil, 5-((3,4-dimethoxyphenylethyl)methylamino)-2-(3,4-dimethoxyphenyl)-2-isopropylvaleronitrile, reference compound], the “blocking effect” value is “have poor effects and do not have bitterness masking effect”. Further, where the note is “Addition of drugs”, the “average value of fluorescence brightness” value was 27.77 and the “average value … base number removed” value was −0.085. For the same compound, under setting [1], the “average value of fluorescence brightness” value came to 28.089 and the “average value … base number removed” value is 0.234. Moreover, under setting [2], the “average value of fluorescence brightness” value is reported as 27.651 and the “average value … base number removed” value was −0.204. Besides, under setting [3], the “average value of fluorescence brightness” value amounted to 27.574 and the “average value … base number removed” value is listed as −0.281. The “average value … base number removed” value (Initial) is 0. Under setting [4], the “average value of fluorescence brightness” value stood at 27.855.

Turning to `CC1CCC(C(C)C)C(=O)C1` (stereo not drawn) [Menthone, 5-methyl-2-isopropylcyclohexanone], the “blocking effect” value was “can block the sodium ion channel of Trpm5 bitter receptor”. For the same compound, under “Addition of drugs”, the “average value of fluorescence brightness” value was determined as 25.48 and the “average value … base number removed” value was −0.076. Besides, under setting [1], the “average value of fluorescence brightness” value came to 25.415 and the “average value … base number removed” value is −0.141. Further, under setting [2], the “average value of fluorescence brightness” value came out at 25.447 and the “average value … base number removed” value is listed as −0.109. Also, under setting [3], the “average value of fluorescence brightness” value worked out at 25.4 and the “average value … base number removed” value was −0.156. Further, the “average value … base number removed” value (Initial) is on record as 0. Under setting [4], the “average value of fluorescence brightness” value is 25.556.
